From US20070128217A1 (priority 2003, published 2007) come the findings set out here.

Test [1] has as its system antibodies in sera from SARS patients (sera 1a, 1b, 2, 6, 37, 62, London, SARS-yellow, SARS-green). In kind it is binding, human. Details: Binding of serum 6 to linear peptides of protein X1 of SARS-CoV Urbani / Binding of serum 37 to linear peptides of protein X1 of SARS-CoV Urbani / Binding of serum 6 to looped/cyclic peptide (PEPSCAN-ELISA) / Binding of serum 37 to looped/cyclic peptide (PEPSCAN-ELISA) / Binding of serum 37 to looped/cyclic peptides of protein X1 of SARS-CoV Urbani / Binding of serum 6 to linear peptides of protein X2 / Binding of serum 37 to linear peptides of protein X2 / Binding of serum 37 to looped/cyclic peptides of protein X2 of SARS-CoV Urbani / Binding of serum 6 to linear peptides of protein M of SARS-CoV Urbani / Binding of serum 37 to linear peptides of protein M of SARS-CoV Urbani / Binding of serum 6 to looped/cyclic peptides of protein M of SARS-CoV Urbani / Binding of serum 37 to looped/cyclic peptides of protein M of SARS-CoV Urbani / Binding of serum 6 to linear peptides of protein X3 of SARS-CoV Urbani / Binding of serum 37 to linear peptides of protein X3 of SARS-CoV Urbani / Binding of serum 37 to looped/cyclic peptides of protein X3 of SARS-CoV Urbani / Binding of serum 6 to linear peptides of protein X4 of SARS-CoV Urbani / Binding of serum 37 to linear peptides of protein X4 of SARS-CoV Urbani / Binding of serum 37 to looped/cyclic peptides of protein X4 of SARS-CoV Urbani / Binding of serum 6 to linear peptides of protein X5 of SARS-CoV Urbani / Binding of serum 37 to linear peptides of protein X5 of SARS-CoV Urbani / Binding of serum 37 to looped/cyclic peptides of protein X5 of SARS-CoV Urbani / Binding of serum 6 to linear peptides of protein N of SARS-CoV Urbani / Binding of serum 37 to linear peptides of protein N of SARS-CoV Urbani / Binding of serum 6 to linear peptide (PEPSCAN-ELISA) / Binding of serum 1a to looped/cyclic peptides of protein N of SARS-CoV Urbani / Binding of serum 1b to looped/cyclic peptides of protein N of SARS-CoV Urbani / Binding of serum 2 to looped/cyclic peptides of protein N of SARS-CoV Urbani / Binding of serum 6 to looped/cyclic peptides of protein N of SARS-CoV Urbani / Binding of serum 37 to looped/cyclic peptides of protein N of SARS-CoV Urbani / Binding of serum 62 to looped/cyclic peptides of protein N of SARS-CoV Urbani / Binding of serum London to looped/cyclic peptides of protein N of SARS-CoV Urbani / Binding of serum SARS-green to looped/cyclic peptides of protein N of SARS-CoV Urbani: unit not given here.

Test [2] deals with control sera (pooled serum of ten healthy LUMC hospital workers; commercial negative donor pooled serum from the Dutch bloodbank). In kind it is binding, human. Details: Binding of Control serum LUMC to linear peptides / Binding of Control serum Blood-bank to linear peptides / Binding of Control serum LUMC to looped peptides / Binding of Control Serum Blood-Bank to Looped peptides / Binding of Control serum LUMC to linear peptides of the protein M of SARS-CoV Urbani / Binding of Control serum Blood-bank to linear peptides of the protein M of SARS-CoV Urbani / Binding of Control serum LUMC to looped peptides of the protein M of SARS-CoV Urbani / Binding of Control Serum Blood-Bank to Looped peptides of the protein M of SARS-CoV Urbani: unit not given here.

Test [3] has as its system rabbit serum obtained by immunizing a rabbit with the SARS-CoV strain Frankfurt 1. In kind it is binding. Set-up: Binding of a rabbit serum to linear peptides / Binding of a rabbit serum to looped peptides / Rabbit serum linear peptides / Rabbit serum looped peptides / Binding of a rabbit serum to linear peptides of protein N of SARS-CoV Urbani (Rabbit serum linear peptides) / Binding of a rabbit serum to looped/cyclic peptides of protein N of SARS-CoV Urbani (Rabbit serum looped peptides): unit not given here.

On to TFRIAIWNLDVIISS, for which, in test [1], the “Binding of serum 1a to linear peptides of protein X3 of SARS-CoV Urbani” value was determined as 0.8, the “Binding of serum 1a to looped/cyclic peptides of protein X3 of SARS-CoV Urbani” value is given as 0.7, the “Binding of serum 1b to linear peptides of protein X3 of SARS-CoV Urbani” value is 0.5 and the “Binding of serum 1b to looped/cyclic peptides of protein X3 of SARS-CoV Urbani” value was found to be 0.5. For the same sequence, in test [1], the “Binding of serum 2 to linear peptides of protein X3 of SARS-CoV Urbani” value is 0.6, the “Binding of serum 2 to looped/cyclic peptides of protein X3 of SARS-CoV Urbani” value is reported as 0.6, the “Binding of serum 6 to linear peptides of protein X3 of SARS-CoV Urbani” value is listed as 0.5 and the “Binding of serum 6 to looped/cyclic peptides of protein X3 of SARS-CoV Urbani” value came out at 0.3. In test [1], the “Binding of serum 37 to linear peptides of protein X3 of SARS-CoV Urbani” value came to 0.6, the “Binding of serum 37 to looped/cyclic peptides of protein X3 of SARS-CoV Urbani” value is 0.6, the “Binding of serum 62 to linear peptides of protein X3 of SARS-CoV Urbani” value was determined as 0.7 and the “Binding of serum 62 to looped/cyclic peptides of protein X3 of SARS-CoV Urbani” value is on record as 0.7. In addition, in test [1], the “Binding of serum London to linear peptides of protein X3 of SARS-CoV Urbani” value came to 0.7, the “Binding of serum London to looped/cyclic peptides of protein X3 of SARS-CoV Urbani” value was determined as 0.2, the “Binding of serum SARS-green to linear peptides of protein X3 of SARS-CoV Urbani” value is 0.4 and the “Binding of serum SARS-green to looped/cyclic peptides of protein X3 of SARS-CoV Urbani” value is 0.2. Further, in test [1], the “Binding of serum SARS-yellow to linear peptides of protein X3 of SARS-CoV Urbani” value is reported as 0.6 and the “Binding of serum SARS-yellow to looped/cyclic peptides of protein X3 of SARS-CoV Urbani” value came to 0.5. Further, in test [2], the “Binding of Control Serum Blood-Bank to Looped peptides of the protein X3 of SARS-CoV Urbani” value worked out at 0.8, the “Binding of Control serum Blood-bank to linear peptides of the protein X3 of SARS-CoV Urbani” value is reported as 0.8, the “Binding of Control serum LUMC to linear peptides of the protein X3 of SARS-CoV Urbani” value was 0.7 and the “Binding of Control serum LUMC to looped peptides of the protein X3 of SARS-CoV Urbani” value came out at 0.6. For the same sequence, in test [3], the “Rabbit serum linear peptides” value is on record as 0.3 and the “Rabbit serum looped peptides” value is 0.4.

For the sequence THFAFACADGTRHTY, in test [1], the “Binding of serum 1a to linear peptides of protein X4 of SARS-CoV Urbani” value was found to be 0.7, the “Binding of serum 1a to looped/cyclic peptides of protein X4 of SARS-CoV Urbani” value was determined as 0.7, the “Binding of serum 1b to linear peptides of protein X4 of SARS-CoV Urbani” value is reported as 0.5 and the “Binding of serum 1b to looped/cyclic peptides of protein X4 of SARS-CoV Urbani” value came out at 0.5. Moreover, in test [1], the “Binding of serum 2 to linear peptides of protein X4 of SARS-CoV Urbani” value was 0.5, the “Binding of serum 2 to looped/cyclic peptides of protein X4 of SARS-CoV Urbani” value is listed as 0.5, the “Binding of serum 6 to linear peptides of protein X4 of SARS-CoV Urbani” value is given as 0.6 and the “Binding of serum 6 to looped/cyclic peptides of protein X4 of SARS-CoV Urbani” value is listed as 0.5. In test [1], the “Binding of serum 37 to linear peptides of protein X4 of SARS-CoV Urbani” value turned out to be 0.6, the “Binding of serum 37 to looped/cyclic peptides of protein X4 of SARS-CoV Urbani” value turned out to be 0.6, the “Binding of serum 62 to linear peptides of protein X4 of SARS-CoV Urbani” value is reported as 0.7 and the “Binding of serum 62 to looped/cyclic peptides of protein X4 of SARS-CoV Urbani” value stood at 0.6. In test [1], the “Binding of serum London to linear peptides of protein X4 of SARS-CoV Urbani” value is recorded as 0.7, the “Binding of serum London to looped/cyclic peptides of protein X4 of SARS-CoV Urbani” value was 0.3, the “Binding of serum SARS-green to linear peptides of protein X4 of SARS-CoV Urbani” value is on record as 0.5 and the “Binding of serum SARS-green to looped/cyclic peptides of protein X4 of SARS-CoV Urbani” value turned out to be 0.4. In addition, in test [1], the “Binding of serum SARS-yellow to linear peptides of protein X4 of SARS-CoV Urbani” value turned out to be 0.2 and the “Binding of serum SARS-yellow to looped/cyclic peptides of protein X4 of SARS-CoV Urbani” value stood at 0.5. In test [2], the “Binding of Control Serum Blood-Bank to Looped peptides” value was 0.7, the “Binding of Control serum Blood-bank to linear peptides” value is on record as 0.7, the “Binding of Control serum LUMC to linear peptides” value is reported as 0.7 and the “Binding of Control serum LUMC to looped peptides” value was determined as 0.7. Further, in test [3], the “Rabbit serum linear peptides” value is reported as 0.4 and the “Rabbit serum looped peptides” value worked out at 0.5.

Consider THITMTTVYHITVSQ, for which, in test [1], the “Binding of serum 1a to linear peptides of protein X2” value turned out to be 0.6, the “Binding of serum 1a to looped/cyclic peptides of protein X2 of SARS-CoV Urbani” value is recorded as 0.6, the “Binding of serum 1b to linear peptides of protein X2” value is given as 0.5 and the “Binding of serum 1b to looped/cyclic peptides of protein X2 of SARS-CoV Urbani” value is reported as 0.6. In test [1], the “Binding of serum 2 to linear peptides of protein X2” value worked out at 0.4, the “Binding of serum 2 to looped/cyclic peptides of protein X2 of SARS-CoV Urbani” value turned out to be 0.3, the “Binding of serum 6 to linear peptides of protein X2” value is 0.6 and the “Binding of serum 6 to looped/cyclic peptides of protein X2 of SARS-CoV Urbani” value came out at 0.2. Besides, in test [1], the “Binding of serum 37 to linear peptides of protein X2” value is recorded as 0.7, the “Binding of serum 37 to looped/cyclic peptides of protein X2 of SARS-CoV Urbani” value was 0.5, the “Binding of serum 62 to linear peptides of protein X2” value amounted to 0.4 and the “Binding of serum 62 to looped/cyclic peptides of protein X2 of SARS-CoV Urbani” value stood at 0.6. In addition, in test [1], the “Binding of serum London to linear peptides of protein X2” value came out at 0.4, the “Binding of serum London to looped/cyclic peptides of protein X2 of SARS-CoV Urbani” value is listed as 0.2, the “Binding of serum SARS-green to linear peptides of protein X2” value is reported as 0.4 and the “Binding of serum SARS-green to looped/cyclic peptides of protein X2 of SARS-CoV Urbani” value was 0.3. Further, in test [1], the “Binding of serum SARS-yellow to linear peptides of protein X2” value was 0.5 and the “Binding of serum SARS-yellow to looped/cyclic peptides of protein X2 of SARS-CoV Urbani” value turned out to be 0.5. In test [2], the “Binding of Control Serum Blood-Bank to Looped peptides” value came out at 0.6, the “Binding of Control serum Blood-bank to linear peptides” value came to 0.3, the “Binding of Control serum LUMC to linear peptides” value is recorded as 0.8 and the “Binding of Control serum LUMC to looped peptides” value is recorded as 0.7. In test [3], the “Binding of a rabbit serum to linear peptides” value worked out at 0.7 and the “Binding of a rabbit serum to looped peptides” value amounted to 0.4.

On to TIVTRPLMESELVIG, for which, in test [1], the “Binding of serum 1a to linear peptides of protein M of SARS-CoV Urbani” value is recorded as 0.8, the “Binding of serum 1b to linear peptides of protein M of SARS-CoV Urbani” value is 0.6, the “Binding of serum 2 to linear peptides of protein M of SARS-CoV Urbani” value turned out to be 0.6 and the “Binding of serum 6 to linear peptides of protein M of SARS-CoV Urbani” value is listed as 0.4. Besides, in test [1], the “Binding of serum 37 to linear peptides of protein M of SARS-CoV Urbani” value was 0.7, the “Binding of serum 62 to linear peptides of protein M of SARS-CoV Urbani” value came to 0.9, the “Binding of serum London to linear peptides of protein M of SARS-CoV Urbani” value came out at 0.3 and the “Binding of serum SARS-green to linear peptides of protein M of SARS-CoV Urbani” value was found to be 0.3. In addition, in test [1], the “Binding of serum SARS-yellow to linear peptides of protein M of SARS-CoV Urbani” value is 0.1; the “Recognition of the peptide by sera of SARS-CoV infected individuals, and form (linear, looped/cyclic) in which it is recognized” value was “recognized in looped/cyclic form”. In test [2], the “Binding of Control Serum Blood-Bank to Looped peptides of the protein M of SARS-CoV Urbani” value is recorded as 0.9, the “Binding of Control serum Blood-bank to linear peptides of the protein M of SARS-CoV Urbani” value turned out to be 0.8, the “Binding of Control serum LUMC to linear peptides of the protein M of SARS-CoV Urbani” value came to 0.5 and the “Binding of Control serum LUMC to looped peptides of the protein M of SARS-CoV Urbani” value is on record as 1.0. Further, in test [3], the “Rabbit serum linear peptides” value amounted to 0.3 and the “Rabbit serum looped peptides” value worked out at 0.3.
